Measured values reported in ChEMBL document CHEMBL1250531, “Comparative nuclease and anti-cancer properties of the naturally occurring malabaricones” (Bioorg Med Chem, 2010).
The source made the active and inactive calls. The calls are words filed in the database; no cut-off is given here.

What was measured:
MCF7 [1] = test: Cytotoxicity against human MCF7 cells at 100 uM after 72 hrs by MTT assay; type: functional, cell-based
Nucleic Acid [2] = test: Induction of Escherichia coli pBR322 DNA cleavage assessed as open circular form of DNA at 25 uM after 45 mins by agarose gel electrophoresis in presence of copper; type: nucleic-acid assay
Nucleic Acid [3] = test: Induction of Escherichia coli pBR322 DNA cleavage assessed as linear form of DNA at 25 uM after 45 mins by agarose gel electrophoresis in presence of copper; type: nucleic-acid assay
MCF7 [4] = test: Cytotoxicity against human MCF7 cells after 72 hrs by MTT assay; type: functional, cell-based; details: for IC50: MCF7, 72 h
Nucleic Acid [5] = test: Induction of Escherichia coli pBR322 DNA cleavage at 25 uM after 45 mins under anoxic condition by agarose gel electrophoresis in presence of copper; type: nucleic-acid assay
MCF7 [6] = test: Ratio of compound IC50 to curcumin IC50 for human MCF7 cells; type: functional
MCF7 [7] = test: Induction of morphological changes in human MCF7 cells at 2.5 to 40 uM after 24 hrs by phase contrast microscopic analysis; type: functional, cell-based
MCF7 [8] = test: Cytotoxicity against human MCF7 cells assessed as cell viability at 5 uM after 72 hrs by MTT assay pretreated with 1 mM of NAC relative to control; type: functional
MCF7 [9] = test: Induction of ROS production in human MCF7 cells at 1 mM after 3 hrs by DCFDA assay relative to control; type: functional
Nucleic Acid [10] = test: Induction of Escherichia coli pBR322 DNA cleavage at 25 uM after 45 mins by agarose gel electrophoresis in presence of 100 uM of copper and 100 mM of sodium azide; type: nucleic-acid assay
Nucleic Acid [11] = test: Induction of Escherichia coli pBR322 DNA cleavage at 25 uM after 45 mins by agarose gel electrophoresis in presence of 100 uM of copper and 100 mM of mannitol; type: nucleic-acid assay
[12] = Induction of superoxide radical production at 100 uM after 20 mins by NBT reduction assay relative to control in presence of 100 uM of copper; type: physicochemical
MCF7 [13] = test: Induction of ROS production in human MCF7 cells at 15 uM after 3 hrs by DCFDA assay relative to control; type: functional
MCF7 [14] = test: Induction of ROS production in human MCF7 cells at 10 uM after 3 hrs by DCFDA assay relative to control; type: functional
[15] = Induction of copper chelation assessed as compound copper complex formation at 25 uM by absorption spectroscopic analysis; type: physicochemical
MCF7 [16] = test: Induction of ROS production in human MCF7 cells after 3 hrs by DCFDA assay; type: functional, cell-based
Nucleic Acid [17] = test: Induction of Escherichia coli pBR322 DNA cleavage at 5 to 10 uM uM after 45 mins by agarose gel electrophoresis in presence of 100 uM of copper; type: nucleic-acid assay
Nucleic Acid [18] = test: Induction of Escherichia coli pBR322 DNA cleavage at 25 uM after 45 mins by agarose gel electrophoresis; type: nucleic-acid assay
Calf thymus DNA [19] = test: Binding affinity to calf thymus DNA assessed as increase of viscosity of DNA solution at 0.2 mM after 30 mins; type: nucleic-acid assay; details: Bos taurus
Nucleic Acid [20] = test: Induction of Escherichia coli pBR322 DNA cleavage at 25 uM after 45 mins by agarose gel electrophoresis in presence of 100 uM of copper and 500 mM of mannitol; type: nucleic-acid assay
Nucleic Acid [21] = test: Induction of Escherichia coli pBR322 DNA cleavage assessed as supercoiled form of DNA at 25 uM after 45 mins by agarose gel electrophoresis in presence of 100 uM of copper; type: nucleic-acid assay
Calf thymus DNA [22] = test: Binding affinity to calf thymus DNA at 50 uM after 5 mins by absorption spectroscopic analysis; type: nucleic-acid assay; details: Bos taurus
Nucleic Acid [23] = test: Induction of Escherichia coli pBR322 DNA cleavage at 25 uM after 45 mins by agarose gel electrophoresis in presence of 100 uM of copper and 250 uM of EDTA; type: nucleic-acid assay
Nucleic Acid [24] = test: Induction of Escherichia coli pBR322 DNA cleavage assessed as supercoiled form of DNA at 25 uM after 45 mins by agarose gel electrophoresis in presence of 100 uM of copper and catalase; type: nucleic-acid assay
Nucleic Acid [25] = test: Induction of Escherichia coli pBR322 DNA cleavage assessed as supercoiled form of DNA at 25 uM after 45 mins by agarose gel electrophoresis in presence of 100 uM of copper and sodium azide; type: nucleic-acid assay
MCF7 [26] = test: Induction of apoptosis in human MCF7 cells assessed as DNA ladder formation after 24 hrs using ethidium bromide staining by agarose gel electrophoresis; type: functional, cell-based
Calf thymus DNA [27] = test: Binding affinity to calf thymus DNA assessed as increase of ethidium bromide fluorescence quenching at 0.2 mM after 30 mins; type: nucleic-acid assay; details: Bos taurus
Nucleic Acid [28] = test: Induction of Escherichia coli pBR322 DNA cleavage at 25 uM after 45 mins by agarose gel electrophoresis in presence of 100 uM of copper and 500 U/ml of catalase; type: nucleic-acid assay
Nucleic Acid [29] = test: Induction of Escherichia coli pBR322 DNA cleavage assessed as supercoiled form of DNA at 25 uM after 45 mins by agarose gel electrophoresis in presence of 100 uM of copper and EDTA; type: nucleic-acid assay
Nucleic Acid [30] = test: Induction of Escherichia coli pBR322 DNA cleavage assessed as supercoiled form of DNA at 25 uM after 45 mins by agarose gel electrophoresis in presence of 100 uM of copper and neocuproine; type: nucleic-acid assay
Nucleic Acid [31] = test: Induction of Escherichia coli pBR322 DNA cleavage at 25 uM after 45 mins by agarose gel electrophoresis in presence of 100 uM of copper and 500 U/ml of superoxide dismutase; type: nucleic-acid assay
Nucleic Acid [32] = test: Induction of Escherichia coli pBR322 DNA cleavage at 25 uM after 45 mins by agarose gel electrophoresis in presence of 100 uM of copper and 250 U/ml of superoxide dismutase; type: nucleic-acid assay
Nucleic Acid [33] = test: Induction of Escherichia coli pBR322 DNA cleavage at 25 uM after 45 mins by agarose gel electrophoresis in presence of <100 uM of copper; type: nucleic-acid assay
Nucleic Acid [34] = test: Induction of Escherichia coli pBR322 DNA cleavage assessed as open circular form of DNA at 25 uM after 30 mins by agarose gel electrophoresis in presence of 100 uM of copper; type: nucleic-acid assay
Nucleic Acid [35] = test: Induction of Escherichia coli pBR322 DNA cleavage at 25 uM after 45 mins by agarose gel electrophoresis in presence of 100 uM of copper and 100 mM of DMSO; type: nucleic-acid assay
[36] = Induction of hydrogen peroxide production at 100 uM after 20 mins by horse radish peroxidase assay relative to control in presence of 100 uM of copper; type: physicochemical
MCF7 [37] = test: Cytotoxicity against human MCF7 cells assessed as cell viability at 5 uM after 72 hrs by MTT assay; type: functional; details: MCF7, 72 h, read-out: Activity
Nucleic Acid [38] = test: Induction of Escherichia coli pBR322 DNA cleavage at 25 uM after 45 mins by agarose gel electrophoresis in presence of 100 uM of copper and 250 uM of neocuproine; type: nucleic-acid assay
MCF7 [39] = test: Cytotoxicity against human MCF7 cells at 50 uM after 72 hrs by MTT assay relative to control; type: functional

Structure (SMILES): C=CCc1ccc(O)c(O)c1
- Activity (MCF7 [1]): inactive

Structure (SMILES): O=C(CCCCCCCCc1ccc2c(c1)OCO2)c1c(O)cccc1O
- Activity (Nucleic Acid [2]): Active
- Activity (Nucleic Acid [3]): inactive
- IC50 (MCF7 [4]): 15.7 µM
- Activity (Nucleic Acid [5]): inactive

Structure (SMILES): COc1cc(/C=C/C(=O)CC(=O)/C=C/c2ccc(O)c(OC)c2)ccc1O [CURCUMIN]
- IC50 (MCF7 [4]): 24.5 µM
- fold change (FC) (MCF7 [6]): 4

Structure (SMILES): O=C(CCCCCCCCc1ccc(O)c(O)c1)c1c(O)cccc1O [MALABARICONE C]
- Activity (MCF7 [7]): Active
- Activity (MCF7 [8]): 75.32%
- Activity (MCF7 [9]): 71%
- Activity (Nucleic Acid [10]): inactive
- Activity (Nucleic Acid [11]): Active
- Activity [12]: 42%
- Activity (MCF7 [13]): 50%
- Activity (MCF7 [14]): 26%
- Activity (Nucleic Acid [2]): Active
- Activity [15]: Active
- Activity (MCF7 [16]): Dose-dependent effect
- Activity (Nucleic Acid [17]): Active
- Activity (Nucleic Acid [18]): inactive
- Activity (Nucleic Acid [3]): Active
- Activity (Calf thymus DNA [19]): Active
- Activity (Nucleic Acid [20]): Active
- Activity (Nucleic Acid [21]): inactive
- Activity (Calf thymus DNA [22]): Active
- IC50 (MCF7 [4]): 5.26 µM
- Activity (Nucleic Acid [23]): inactive
- Activity (Nucleic Acid [24]): 82%
- Activity (Nucleic Acid [25]): 93.1%
- Activity (MCF7 [26]): Dose-dependent effect
- Activity (Calf thymus DNA [27]): 24.4%
- Activity (Nucleic Acid [28]): inactive
- Activity (Nucleic Acid [29]): 76.2%
- Activity (Nucleic Acid [30]): 98.5%
- Activity (Nucleic Acid [31]): Active
- Activity (Nucleic Acid [32]): Active
- Activity (Nucleic Acid [33]): inactive
- Activity (Nucleic Acid [34]): Active
- Activity (Nucleic Acid [35]): Active
- Activity [36]: 85%
- viability at 5 µM (MCF7 [37]): 45.3%
- Activity (Nucleic Acid [38]): inactive

Structure (SMILES): O=C(CCCCCCCCc1ccccc1)c1c(O)cccc1O [MALABARICONE A]
- Activity (Nucleic Acid [2]): inactive
- Activity (Nucleic Acid [3]): Active
- Activity (MCF7 [4]): Dose-dependent effect
- Activity (MCF7 [39]): 12%
- Activity (Nucleic Acid [5]): inactive

Structure (SMILES): O=C(CCCCCCCCc1ccc(O)cc1)c1c(O)cccc1O
- Activity (Nucleic Acid [2]): Active
